This passage reports EC50 results from patent publication EP2459551B1, “DIHYDROBENZOINDAZOLES” (Merck Sharp & Dohme B.V., priority 2009, dated 2011).
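Also: CHO cells stably expressing human FSH receptor with CRE-driven firefly luciferase, luminescence read as counts per second after 4 h compound exposure in 1% DMSO.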

This test addresses T1, human FSH receptor (Homo sapiens, UniProt P23945).
T1 sequence (P23945 18-695): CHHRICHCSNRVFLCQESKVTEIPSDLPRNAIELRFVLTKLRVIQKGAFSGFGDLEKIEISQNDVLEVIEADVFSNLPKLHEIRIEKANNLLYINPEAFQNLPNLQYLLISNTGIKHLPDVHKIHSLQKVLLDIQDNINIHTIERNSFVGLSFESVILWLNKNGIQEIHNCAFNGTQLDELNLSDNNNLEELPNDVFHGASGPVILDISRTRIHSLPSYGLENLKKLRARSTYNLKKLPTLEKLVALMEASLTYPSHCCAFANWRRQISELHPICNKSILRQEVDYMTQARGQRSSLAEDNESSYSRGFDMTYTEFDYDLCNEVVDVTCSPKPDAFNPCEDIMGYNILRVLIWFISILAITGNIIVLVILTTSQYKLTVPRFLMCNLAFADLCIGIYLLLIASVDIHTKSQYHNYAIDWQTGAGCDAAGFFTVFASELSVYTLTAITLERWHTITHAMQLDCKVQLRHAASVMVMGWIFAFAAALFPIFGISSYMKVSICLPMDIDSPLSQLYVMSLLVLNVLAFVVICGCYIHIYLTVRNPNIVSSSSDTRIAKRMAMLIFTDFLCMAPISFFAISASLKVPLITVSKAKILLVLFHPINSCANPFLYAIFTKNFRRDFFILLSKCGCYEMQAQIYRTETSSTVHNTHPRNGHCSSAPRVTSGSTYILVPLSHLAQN
Method: Agonistic activity of compounds at the human FSH receptor expressed in CHO cells
Agonistic activity of the compounds at the human FSH receptor was determined in Chinese Hamster Ovary (CHO) cells stably transfected with the human FSH receptor and cotransfected with a cAMP responsive element (CRE)/promotor directing the expression of a firefly luciferase reporter gene. […] Cells (7,500 cells/well of a 384 well plate) were incubated in Dulbecco' minimal essential F12 modified medium (Invitrogen), supplemented with 1 µg/ml bovine insulin, 5 µg/ml human apotransferrin, 80 U/ml penicillin G and 80 µg/ml streptomycin with the test compounds (concentration between 0.0316 nM and 10.0 µM) in duplicate in a humidified atmosphere (95%) at 5-7% CO2 and 37°C. The final concentration of DMSO was 1%. After 4 hours of incubation, plates were allowed to adjust to room temperature for 1 hour. Then, Luclite (PerkinElmer) solution was added to the wells and cells were allowed to lyse for at least 1 hour at room temperature. Subsequently, luciferase activity was measured in a luminescence counter. The signal is expressed as counts per second (cps). The EC50 (concentration of the test compound that elicits half-maximal (50 %) luciferase stimulation compared to the compound's maximally attainable effect) and efficacy values (maximal effect of the test compound as percentage of the maximal effect of recombinant human FSH) of the compounds were determined using the software program MathIQ (version 2.0, ID Business Solutions Limited).
Turning to `COc1cc2c(cc1OC)-c1c(c(C(=O)N(C)C(C)(C)C)nn1-c1ccc(F)cc1)CC2` [Example 1e, N-tert-butyl-1-(4-fluorophenyl)-7,8-dimethoxy-N-methyl-4,5-dihydro-1H-benzo[g]indazole-3-carboxamide], the concentration for a half-maximal effect (EC50) lay within 1000 to 10000 nM.
Molecule `COc1cc2c(cc1OC)-c1c(c(C(=O)N3CCCN(C(C)=O)CC3)nn1-c1ccc(F)cc1)CC2` [Example 1f] displayed an EC50 of 1000 to 10000 nM.
To `COc1cc2c(cc1OC)-c1c(c(C(=O)N3CCCN(C(=O)C4CCC4)CC3)nn1-c1ccc(F)cc1)CC2` [Example 1g] belongs 100 to 1000 nM; to `COc1cc2c(cc1OC(C)C)-c1c(c(C(=O)N(C)C(C)(C)C)nn1-c1nc3ccccc3s1)CC2` [Example 4d, 1-(benzo[d]thiazol-2-yl)-N-tert-butyl-8-isopropoxy-7-methoxy-N-methyl-4,5-dihydro-1H-benzo[g]indazole-3-carboxamide], 1000 to 10000 nM; to `COc1cc2c(cc1OC(C)C)-c1c(c(C(=O)N(C)C(C)(C)C)nn1-c1cccnc1)CC2` [Example 6b, N-tert-butyl-8-isopropoxy-7-methoxy-N-methyl-1-(pyridin-3-yl)-4,5-dihydro-1H-benzo[g]indazole-3-carboxamide], 100 to 1000 nM.
To `C=CCc1cccc(-n2nc(C(=O)N(C)C(C)(C)C)c3c2-c2cc(OC(C)C)c(OC)cc2CC3)c1` [Example 7ca, 1-(3-allylphenyl)-N-tert-butyl-8-isopropoxy-7-methoxy-N-methyl-4,5-dihydro-1H-benzo[g]indazole-3-carboxamide] belongs 1000 to 10000 nM; to `C=C(C)c1cccc(-n2nc(C(=O)N(C)C(C)(C)C)c3c2-c2cc(OC(C)C)c(OC)cc2CC3)c1` [Example 7cb, N-tert-butyl-8-isopropoxy-7-methoxy-N-methyl-1-(3-(prop-1-en-2-yl)phenyl)-4,5-dihydro-1H-benzo[g]indazole-3-carboxamide], 1000 to 10000 nM.
To `C=Cc1cccc(-n2nc(C(=O)N(C)C(C)(C)C)c3c2-c2cc(OC(C)C)c(OC)cc2CC3)c1` [Example 7cc, N-tert-butyl-8-isopropoxy-7-methoxy-N-methyl-1-(3-vinylphenyl)-4,5-dihydro-1H-benzo[g]indazole-3-carboxamide] belongs 100 to 1000 nM.
For the molecule `CCc1cccc(-n2nc(C(=O)N(C)C(C)(C)C)c3c2-c2cc(OC(C)C)c(OC)cc2CC3)c1` [Example 7cd, N-tert-butyl-1-(3-ethylphenyl)-8-isopropoxy-7-methoxy-N-methyl-4,5-dihydro-1H-benzo[g]indazole-3-carboxamide], the 50% effective concentration (EC50) was 100 to 1000 nM.
With `COc1cc2c(cc1OC(C)C)-c1c(c(C(=O)N(C)C(C)(C)C)nn1-c1cccc(C3CC3)c1)CC2` [Example 7cf, N-tert-butyl-1-(3-cyclopropylphenyl)-8-isopropoxy-7-methoxy-N-methyl-4,5-dihydro-1H-benzo[g]indazole-3-carboxamide], the 50% effective concentration (EC50) is 100 to 1000 nM.
As for `COc1cc2c(cc1OC(C)C)-c1c(c(C(=O)N(C)C(C)(C)C)nn1-c1cccc([N+](=O)[O-])c1)CC2` [Example 8ca, N-tert-butyl-8-isopropoxy-7-methoxy-N-methyl-1-(3-nitrophenyl)-4,5-dihydro-1H-benzo[g]indazole-3-carboxamide], the figure is 1000 to 10000 nM; as for `COc1cc2c(cc1OC(C)C)-c1c(c(C(=O)N(C)C(C)(C)C)nn1-c1cccc(F)c1)CC2` [Example 8cb, N-tert-butyl-1-(3-fluorophenyl)-8-isopropoxy-7-methoxy-N-methyl-4,5-dihydro-1H-benzo[g]indazole-3-carboxamide], 100 to 1000 nM; as for `COc1cccc(-n2nc(C(=O)N(C)C(C)(C)C)c3c2-c2cc(OC(C)C)c(OC)cc2CC3)c1` [Example 8cc, N-tert-butyl-8-isopropoxy-7-methoxy-1-(3-methoxyphenyl)-N-methyl-4,5-dihydro-1H-benzo[g]indazole-3-carboxamide], 100 to 1000 nM.
Regarding `COc1cc2c(cc1OC(C)C)-c1c(c(C(=O)N(C)C(C)(C)C)nn1-c1cccc(C)c1)CC2` [Example 8cd, N-tert-butyl-8-isopropoxy-7-methoxy-N-methyl-1-m-tolyl-4,5-dihydro-1H-benzo[g]indazole-3-carboxamide], the half-maximal effective concentration (EC50) lay in the range of 100 to 1000 nM.
To `COc1cc2c(cc1OC(C)C)-c1c(c(C(=O)N(C)C(C)(C)C)nn1-c1ccccc1Br)CC2` [Example 9ca, 1-(2-bromophenyl)-N-tert-butyl-8-isopropoxy-7-methoxy-N-methyl-4,5-dihydro-1H-benzo[g]indazole-3-carboxamide] belongs 100 to 1000 nM; to `CC=Cc1ccccc1-n1nc(C(=O)N(C)C(C)(C)C)c2c1-c1cc(OC(C)C)c(OC)cc1CC2` [Example 9cb, 1-(2-(2-methylvinyl)-phenyl)-N-tert-butyl-8-isopropoxy-7-methoxy-N-methyl-4,5-dihydro-1H-benzo[g]indazole-3-carboxamide], 1000 to 10000 nM; to `C=Cc1ccccc1-n1nc(C(=O)N(C)C(C)(C)C)c2c1-c1cc(OC(C)C)c(OC)cc1CC2` [Example 9cc, N-tert-butyl-8-isopropoxy-7-methoxy-N-methyl-1-(2-vinylphenyl)-4,5-dihydro-1H-benzo[g]indazole-3-carboxamide], 1000 to 10000 nM.
On to `COc1cc2c(cc1OC(C)C)-c1c(c(C(=O)N(C)C(C)(C)C)nn1-c1ccccc1-c1ccoc1)CC2` [Example 9cd, N-tert-butyl-1-(2-(furan-3-yl)phenyl)-8-isopropoxy-7-methoxy-N-methyl-4,5-dihydro-1H-benzo[g]indazole-3-carboxamide], for which the concentration giving a half-maximal response (EC50) lay in the range of 1000 to 10000 nM.
To `COc1cc2c(cc1OC(C)C)-c1c(c(C(=O)N(C)C(C)(C)C)nn1-c1ccccc1C)CC2` [Example 10ca, N-tert-butyl-8-isopropoxy-7-methoxy-N-methyl-1-o-tolyl-4,5-dihydro-1H-benzo[g]lindazole-3-carboxamide] belongs 1000 to 10000 nM; to `COc1cc2c(cc1OC(C)C)-c1c(c(C(=O)N(C)C(C)(C)C)nn1-c1ccccc1F)CC2` [Example 10cb, N-tert-butyl-1-(2-fluorophenyl)-8-isopropoxy-7-methoxy-N-methyl-4,5-dihydro-1H-benzo[g]indazole-3-carboxamide], 100 to 1000 nM; to `COc1cc2c(cc1OC(C)C)-c1c(c(C(=O)N(C)C(C)(C)C)nn1-c1ccccc1OC)CC2` [Example 10cc, N-tert-butyl-8-isopropoxy-7-methoxy-1-(2-methoxyphenyl)-N-methyl-4,5-dihydro-1H-benzo[g]indazole-3-carboxamide], 1000 to 10000 nM.
As for `COc1cc2c(cc1-c1ncco1)-c1c(c(C(=O)N(C)C(C)(C)C)nn1-c1ccccc1Cl)CC2` [Example 11ga, N-tert-butyl-1-(2-chlorophenyl)-7-methoxy-N-methyl-8-(oxazol-2-yl)-4,5-dihydro-1H-benzo[g]lindazole-3-carboxamide], the figure is 1000 to 10000 nM; as for `COc1cc2c(cc1NC(=O)c1cocn1)-c1c(c(C(=O)N(C)C(C)(C)C)nn1-c1cccc(C)c1)CC2` [Example 12g], 1000 to 10000 nM.
To `COc1cc2c(cc1NS(C)(=O)=O)-c1c(c(C(=O)N(C)C(C)(C)C)nn1-c1cccc(C)c1)CC2` [Example 12h] belongs 1000 to 10000 nM.
